One test addresses mTOR/GbL/Raptor (mTORC1) (Homo sapiens, UniProt P42345). Put plainly: mTOR/GbL/Raptor (mTORC1) ELISA assay. To be noted: phosphorylation of 4E-BP1; 0.2 nM mTORC1, 10 μM ATP; read-out: IC50 in this assay (mTORC1 ELISA). It is filed as biochemical. In short, it runs like this:
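Human mTORC1 (0.2 nM) phosphorylated 50 nM His-tagged 4E-BP1 with 10 µM ATP in HEPES pH 7.2 containing 10 mM MnCl2, 120 min at ambient temperature. Substrate was captured on Ni-chelate plates; phospho-4E-BP1 was detected by primary antibody and HRP secondary with luminescence.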
(In general: ELISA stands for enzyme-linked immunosorbent assay.)

The next test deals with PI3Kα (Homo sapiens, UniProt P42336). As to the kind of experiment: PI3K biochemical assay (luciferase-luciferin ATP consumption). To be noted: 1.5 nM enzyme, 1 μM ATP, 10 μM PIP2; read-out: IC50 for PI3Kα in this assay. The method, then: PI3Kα activity is measured as the percent of ATP consumed following the kinase reaction using luciferase-luciferin-coupled chemiluminescence. Reactions were conducted in 384-well white, medium binding microtiter plates (Greiner). Kinase reactions were initiated by combining test compounds, ATP, substrate (PIP2), and kinase in a 20 μL volume in a buffer solution. The standard PI3Kalpha assay buffer is composed 50 mM Tris, pH 7.5, 1 mM EGTA, 10 mM MgCl2, 1 mM DTT and 0.03% CHAPS. The standard assay concentrations for enzyme, ATP, and substrate are 1.5 nM, 1 μM, and 10 μM, respectively. The reaction mixture was incubated at ambient temperature for approximately 2 h. Following the kinase reaction, a 10 μL aliquot of luciferase-luciferin mix (Promega Kinase-Glo) was added and the chemiluminescence signal measured using a Victor2 plate reader (Perkin Elmer). Total ATP consumption was limited to 40-60% and IC50 values of control compounds correlate well with literature references. Substituting PI3Kα with PI3Kβ, PI3Kγ, or PI3Kδ, the inhibitory activity of the compounds for the other isoforms of I3K were measured.
Sequence of PI3Kα (P42336 whole entry, species assumed): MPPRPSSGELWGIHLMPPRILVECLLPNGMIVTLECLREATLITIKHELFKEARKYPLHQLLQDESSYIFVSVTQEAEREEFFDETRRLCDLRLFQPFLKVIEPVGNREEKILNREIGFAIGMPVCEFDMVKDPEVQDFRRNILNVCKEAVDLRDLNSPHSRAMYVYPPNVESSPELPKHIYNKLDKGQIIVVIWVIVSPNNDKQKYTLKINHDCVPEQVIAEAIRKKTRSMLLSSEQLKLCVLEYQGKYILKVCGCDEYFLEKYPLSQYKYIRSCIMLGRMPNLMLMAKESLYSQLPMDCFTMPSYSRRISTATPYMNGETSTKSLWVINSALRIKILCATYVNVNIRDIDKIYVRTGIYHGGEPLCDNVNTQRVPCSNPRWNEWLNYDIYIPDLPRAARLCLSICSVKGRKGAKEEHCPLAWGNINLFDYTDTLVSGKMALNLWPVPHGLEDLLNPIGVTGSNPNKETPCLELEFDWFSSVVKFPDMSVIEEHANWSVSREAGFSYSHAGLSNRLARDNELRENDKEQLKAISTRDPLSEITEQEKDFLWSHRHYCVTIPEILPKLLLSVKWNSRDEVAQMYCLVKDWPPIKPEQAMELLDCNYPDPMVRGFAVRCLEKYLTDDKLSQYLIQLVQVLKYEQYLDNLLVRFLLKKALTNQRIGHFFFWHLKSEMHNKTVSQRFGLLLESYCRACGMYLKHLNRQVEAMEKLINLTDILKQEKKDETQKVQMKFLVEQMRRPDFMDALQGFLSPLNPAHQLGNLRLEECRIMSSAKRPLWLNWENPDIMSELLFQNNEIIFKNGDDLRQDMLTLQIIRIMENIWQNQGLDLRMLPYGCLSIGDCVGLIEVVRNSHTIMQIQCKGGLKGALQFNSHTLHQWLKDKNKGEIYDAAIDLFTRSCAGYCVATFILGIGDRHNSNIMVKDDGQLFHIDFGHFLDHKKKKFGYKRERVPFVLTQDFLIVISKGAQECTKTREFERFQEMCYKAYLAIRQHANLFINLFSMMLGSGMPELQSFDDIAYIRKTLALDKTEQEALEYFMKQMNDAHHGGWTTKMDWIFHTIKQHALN
Sequence of PI3Kα (P27986 whole entry partner, species assumed): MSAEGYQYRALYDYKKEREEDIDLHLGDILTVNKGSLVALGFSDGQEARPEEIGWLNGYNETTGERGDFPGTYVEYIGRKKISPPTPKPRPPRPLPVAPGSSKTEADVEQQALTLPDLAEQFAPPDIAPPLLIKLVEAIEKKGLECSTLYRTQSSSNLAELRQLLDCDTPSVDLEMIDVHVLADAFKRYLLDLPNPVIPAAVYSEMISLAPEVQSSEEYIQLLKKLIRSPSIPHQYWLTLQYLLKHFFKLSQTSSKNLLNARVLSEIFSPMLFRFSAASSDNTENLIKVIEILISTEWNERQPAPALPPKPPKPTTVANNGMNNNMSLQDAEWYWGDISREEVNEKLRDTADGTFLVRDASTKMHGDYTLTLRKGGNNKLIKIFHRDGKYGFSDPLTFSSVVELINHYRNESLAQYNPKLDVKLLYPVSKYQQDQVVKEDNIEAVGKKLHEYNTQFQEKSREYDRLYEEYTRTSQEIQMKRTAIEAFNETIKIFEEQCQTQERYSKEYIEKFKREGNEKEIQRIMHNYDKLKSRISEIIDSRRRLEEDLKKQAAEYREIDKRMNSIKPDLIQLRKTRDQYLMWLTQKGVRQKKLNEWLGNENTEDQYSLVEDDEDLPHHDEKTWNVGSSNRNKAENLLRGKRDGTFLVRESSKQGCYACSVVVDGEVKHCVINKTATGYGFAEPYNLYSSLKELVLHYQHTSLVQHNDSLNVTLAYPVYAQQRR

For the molecule `Cc1nc2ccc(-c3ccc4c(c3)CN(c3ncnc5c3CSC5)CCO4)cc2[nH]1` [Example 75, 4-(5,7-dihydrothieno[3,4-d]pyrimidin-4-yl)-7-(2-methyl-1H-benzimidazol-6-yl)-2,3,4,5-tetrahydro-1,4-benzoxazepine], the IC50 (commonly the concentration at which inhibition is half-maximal) at mTOR/GbL/Raptor (mTORC1) was 250 to 1000 nM; on PI3Kα, 1000 to 2000 nM.

Turning to `Cc1nccc(N2CCOc3ccc(-c4cnc5nc(C)[nH]c5c4)cc3C2)n1` [Example 85, 7-(2-methyl-1H-imidazo[4,5-b]pyridin-6-yl)-4-(2-methylpyrimidin-4-yl)-2,3,4,5-tetrahydro-1,4-benzoxazepine], the figures for the half-maximal inhibitory concentration (IC50) on mTOR/GbL/Raptor (mTORC1) and at PI3Kα were 50 to 250 nM and 1000 to 2000 nM, respectively.

Consider `Cc1nc2ccc(-c3ccc4c(c3)CN(c3ncnc5c3CN(C3CC3)C5)CCO4)cc2[nH]1` [Example 87, 4-(6-cyclopropyl-6,7-dihydro-5H-pyrrolo[3,4-d]pyrimidin-4-yl)-7-(2-methyl-1H-benzimidazol-6-yl)-2,3,4,5-tetrahydro-1,4-benzoxazepine], for which the IC50 on mTOR/GbL/Raptor (mTORC1) is 250 to 1000 nM; on PI3Kα it was at least 2000 nM.

As for `Cc1ccc(N2Cc3ncnc(N4CCOc5ccc(-c6ccc7nc(C)[nH]c7c6)cc5C4)c3C2)cc1` [Example 88, 7-(2-methyl-1H-benzimidazol-6-yl)-4-[6-(4-methylphenyl)-6,7-dihydro-5H-pyrrolo[3,4-d]pyrimidin-4-yl]-2,3,4,5-tetrahydro-1,4-benzoxazepine], the figures for the IC50 at mTOR/GbL/Raptor (mTORC1) and on PI3Kα were 1000 to 2000 nM and at least 2000 nM, respectively.

For the molecule `Cc1nc2ccc(-c3ccc4c(c3)CN(c3ccccn3)CCO4)cc2[nH]1` [Example 104, 7-(2-methyl-1H-benzimidazol-6-yl)-4-pyridin-2-yl-2,3,4,5-tetrahydro-1,4-benzoxazepine], the IC50 at mTOR/GbL/Raptor (mTORC1) and on PI3Kα was at least 2000 nM throughout.

On to `Cc1nc2ccc(-c3ccc4c(c3)CN(c3ncccn3)CCO4)cc2[nH]1` [Example 106, 7-(2-methyl-1H-benzimidazol-6-yl)-4-pyrimidin-2-yl-2,3,4,5-tetrahydro-1,4-benzoxazepine], for which the IC50 on mTOR/GbL/Raptor (mTORC1) and at PI3Kα was 1000 to 2000 nM each time.

As to `COC(=O)Nc1nc2cc(-c3ccc4c(c3)CN(c3ccnc5ccccc35)CCO4)ccc2n1C` [Example 115, methyl [1-methyl-5-(4-quinolin-4-yl-2,3,4,5-tetrahydro-1,4-benzoxazepin-7-yl)-1H-benzimidazol-2-yl]carbamate], the figures for the 50% inhibitory concentration (IC50) at mTOR/GbL/Raptor (mTORC1) and at PI3Kα were at least 2000 nM and 1000 to 2000 nM, respectively.

On to `CCn1cnc2cc(-c3ccc4c(c3)CN(c3ccnc5ccccc35)CCO4)ccc21` [Example 127, 7-(1-ethyl-1H-benzimidazol-5-yl)-4-quinolin-4-yl-2,3,4,5-tetrahydro-1,4-benzoxazepine], for which the IC50 at mTOR/GbL/Raptor (mTORC1) was 250 to 1000 nM; at PI3Kα, at least 2000 nM.

On to `Cc1nc2cc(-c3ccc4c(c3)CN(c3ccnc5ccccc35)CCO4)ccc2s1` [Example 128, 7-(2-methyl-1,3-benzothiazol-5-yl)-4-quinolin-4-yl-2,3,4,5-tetrahydro-1,4-benzoxazepine], for which the IC50 at mTOR/GbL/Raptor (mTORC1) and on PI3Kα was at least 2000 nM each time.

As to `Cc1ncnc(N2CCOc3ccc(-c4ccc(C(=O)N[C@H]5CCNC5)cc4)cc3C2)c1Cc1ccc(F)cc1` [Example 173, 4-(4-{5-[(4-fluorophenyl)methyl]-6-methylpyrimidin-4-yl}-2,3,4,5-tetrahydro-1,4-benzoxazepin-7-yl)-N-[(3S)-pyrrolidin-3-yl]benzamide], the IC50 was 250 to 1000 nM on mTOR/GbL/Raptor (mTORC1) and at least 2000 nM on PI3Kα.

`c1ccc2c(N3CCOc4ccc(-c5ccc6nc(C7CCCC7)[nH]c6c5)cc4C3)ccnc2c1` [Example 198, 7-(2-cyclopentyl-1H-benzimidazol-6-yl)-4-quinolin-4-yl-2,3,4,5-tetrahydro-1,4-benzoxazepine]: the IC50 at mTOR/GbL/Raptor (mTORC1) and on PI3Kα was at least 2000 nM each time.

For the molecule `c1ccc2c(N3CCOc4ccc(-c5ccsc5)cc4C3)ccnc2c1` [Example 204, 4-quinolin-4-yl-7-(3-thienyl)-2,3,4,5-tetrahydro-1,4-benzoxazepine], the IC50 on mTOR/GbL/Raptor (mTORC1) was at least 2000 nM; on PI3Kα, 1000 to 2000 nM.

Turning to `c1ccc2ncc(-c3ccc4c(c3)CN(c3ccnc5ccccc35)CCO4)cc2c1` [Example 205, 7-quinolin-3-yl-4-quinolin-4-yl-2,3,4,5-tetrahydro-1,4-benzoxazepine], the IC50 on mTOR/GbL/Raptor (mTORC1) and on PI3Kα was 1000 to 2000 nM in each case.

As for `c1ccc2sc(-c3ccc4c(c3)CN(c3ccnc5ccccc35)CCO4)cc2c1` [Example 206, 7-(1-benzothien-2-yl)-4-quinolin-4-yl-2,3,4,5-tetrahydro-1,4-benzoxazepine], the half-maximal inhibitory concentration (IC50) on mTOR/GbL/Raptor (mTORC1) was 1000 to 2000 nM; at PI3Kα, at least 2000 nM.

As for `OCc1ncc(-c2ccc(-c3ccc4c(c3)CN(c3ncnc5cccnc35)CCO4)cc2)[nH]1` [Example 212, {5-[4-(4-pyrido[3,2-d]pyrimidin-4-yl-2,3,4,5-tetrahydro-1,4-benzoxazepin-7-yl)phenyl]-1H-imidazol-2-yl}methanol], the figures for the IC50 on mTOR/GbL/Raptor (mTORC1) and at PI3Kα were 250 to 1000 nM and at least 2000 nM, respectively.

As to `CCn1ccc2cc(-c3ccc4c(c3)CN(c3ccnc5ccccc35)CCO4)cnc21` [Example 223, 7-(1-ethyl-1H-pyrrolo[2,3-b]pyridin-5-yl)-4-quinolin-4-yl-2,3,4,5-tetrahydro-1,4-benzoxazepine], the IC50 at mTOR/GbL/Raptor (mTORC1) and at PI3Kα was at least 2000 nM each time.

`[H]/N=c1\ncc(-c2ccc3c(c2)CN(c2ncnc4c2CC(C)(C)CC4)CCO3)cn1O` [Example 231, (2E)-5-[4-(6,6-dimethyl-5,6,7,8-tetrahydroquinazolin-4-yl)-2,3,4,5-tetrahydro-1,4-benzoxazepin-7-yl]-2-iminopyrimidin-1(2H)-ol]: the results for the IC50 on mTOR/GbL/Raptor (mTORC1) and at PI3Kα were 1000 to 2000 nM and at least 2000 nM, respectively.

As to `c1ccc(-c2nc(N3CCOc4ccc(-c5ccc6nc[nH]c6c5)cc4C3)c3ccccc3n2)cc1` [Example 232, 7-(1H-benzimidazol-6-yl)-4-(2-phenylquinazolin-4-yl)-2,3,4,5-tetrahydro-1,4-benzoxazepine], the IC50 is at least 2000 nM at mTOR/GbL/Raptor (mTORC1) and 1000 to 2000 nM at PI3Kα.

Regarding `Cc1nc2ccc(-c3ccc4c(c3)CN(c3ccnc(N)c3)CCO4)cc2[nH]1` [Example 262, 4-[7-(2-methyl-1H-benzimidazol-6-yl)-2,3-dihydro-1,4-benzoxazepin-4(5H)-yl]pyridin-2-amine], the IC50 on mTOR/GbL/Raptor (mTORC1) and on PI3Kα was at least 2000 nM each time.

Regarding `CCNc1nc2ccc(-c3ccc4c(c3)CN(c3nc(C)nc5cc(OCC)ccc35)CCO4)cc2[nH]1` [Example 288, N-ethyl-6-{4-[7-(ethyloxy)-2-methylquinazolin-4-yl]-2,3,4,5-tetrahydro-1,4-benzoxazepin-7-yl}-1H-benzimidazol-2-amine], the IC50 was at least 2000 nM on mTOR/GbL/Raptor (mTORC1) and 1000 to 2000 nM on PI3Kα.

As to `COc1ccc2c(N3CCOc4ccc(-c5ccc6ncsc6c5)cc4C3)nc(C)nc2c1` [Example 294, 7-(1,3-benzothiazol-6-yl)-4-[2-methyl-7-(methyloxy)quinazolin-4-yl]-2,3,4,5-tetrahydro-1,4-benzoxazepine], the IC50 on mTOR/GbL/Raptor (mTORC1) is at least 2000 nM; on PI3Kα, 1000 to 2000 nM.

On to `COc1cc(-c2ccc3c(c2)CN(c2nc(CN(C)C)nc4c2CC(C)(C)CC4)CCO3)ccc1Cl` [Example 326], for which the 50% inhibitory concentration (IC50) on mTOR/GbL/Raptor (mTORC1) is 250 to 1000 nM; on PI3Kα it was 1000 to 2000 nM.

`COc1cccc(-c2ccc3c(c2)CN(c2nc(CN(C)C)nc4c2CC(C)(C)CC4)CCO3)c1` [Example 328, 1-(6,6-dimethyl-4-{7-[3-(methyloxy)phenyl]-2,3-dihydro-1,4-benzoxazepin-4(5H)-yl]-5,6,7,8-tetrahydroquinazolin-2-yl)-N,N-dimethylmethanamine]: the IC50 at mTOR/GbL/Raptor (mTORC1) was at least 2000 nM; on PI3Kα it was 1000 to 2000 nM.

As to `COc1ccc(-c2ccc3c(c2)CN(c2nc(CN(C)C)nc4c2CC(C)(C)CC4)CCO3)cc1` [Example 329, 1-(6,6-dimethyl-4-{7-[4-(methyloxy)phenyl]-2,3-dihydro-1,4-benzoxazepin-4(5H)-yl}-5,6,7,8-tetrahydroquinazolin-2-yl)-N,N-dimethylmethanamine], the IC50 was at least 2000 nM at mTOR/GbL/Raptor (mTORC1) and 1000 to 2000 nM at PI3Kα.

Regarding `Cc1nc2ccc(-c3ccc4c(c3)CN(c3cc(C(C)(C)O)nc5c3CC(C)(C)CC5)CCO4)cc2[nH]1` [Example 362], the IC50 on mTOR/GbL/Raptor (mTORC1) and on PI3Kα was 50 to 250 nM each time.

`CN(C)Cc1nc2c(c(N3CCOc4ccc(-c5cccc(C(N)=O)c5)cc4C3)n1)CC(C)(C)CC2` [Example 433, 3-(4-{2-[(dimethylamino)methyl]-6,6-dimethyl-5,6,7,8-tetrahydroquinazolin-4-yl}-2,3,4,5-tetrahydro-1,4-benzoxazepin-7-yl)benzamide]: the figures for the IC50 on mTOR/GbL/Raptor (mTORC1) and on PI3Kα were at least 2000 nM and 1000 to 2000 nM, respectively.

Regarding `Cc1nc2c(-c3ccc4c(c3)CN(c3ncnc5c3CC(C)(C)CC5)CCO4)cncc2[nH]1` [Example 475, 4-(6,6-dimethyl-5,6,7,8-tetrahydroquinazolin-4-yl)-7-(2-methyl-3H-imidazo[4,5-c]pyridin-7-yl)-2,3,4,5-tetrahydro-1,4-benzoxazepine], the IC50 on mTOR/GbL/Raptor (mTORC1) and on PI3Kα was at least 2000 nM throughout.

Values taken from patent US8648066B2 (Exelixis, Inc., priority 2009, dated 2014).
